Results taken from PubChem BioAssay (NCI).
Several values for one entry are separate records, joined by “and”; a condition that tells them apart may be missing. Equal entries are not always repeated.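 Five concentrations, 48 hours, 96-well plates. At the GI50, growth is halved. TGI: concentration producing complete growth inhibition.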

Columns and labels:
Test in all cases: NCI tumour cell line growth inhibition, 48 h
CAKI-1 renal = system: CAKI-1 renal
MALME-3M melanoma = system: MALME-3M melanoma
MCF7 breast = system: MCF7 breast
MOLT-4 leukemia = system: MOLT-4 leukemia
NCI-H460 lung = system: NCI-H460 lung
OVCAR-5 ovarian = system: OVCAR-5 ovarian
OVCAR-8 ovarian = system: OVCAR-8 ovarian
SK-MEL-2 melanoma = system: SK-MEL-2 melanoma
SNB-19 CNS = system: SNB-19 CNS
SR leukemia = system: SR leukemia

With `O=C(O)C(Cl)Cl` as the molecule, how does the GI50 (CAKI-1 renal) read?
Its GI50 is 5490 µM and > 10000 µM.

What about the TGI (CAKI-1 renal) of the same molecule?
The TGI was > 10000 µM.

What about the GI50 (MALME-3M melanoma) of the same molecule?
The GI50 was 2500 µM and > 10000 µM.

What about the TGI (MALME-3M melanoma) of the same molecule?
The TGI was > 10000 µM.

And the GI50 (MCF7 breast)?
The GI50 was 5560 µM and > 10000 µM.

What about the TGI (MCF7 breast) of the same molecule?
The TGI was > 10000 µM.

And the GI50 (MOLT-4 leukemia)?
The GI50 was 8180 µM and > 8700 µM.

And the TGI (MOLT-4 leukemia)?
Its TGI is > 10000 µM.

What about the GI50 (NCI-H460 lung) of the same molecule?
Its GI50 is 6070 µM and > 10000 µM.

What about the TGI (NCI-H460 lung) of the same molecule?
Its TGI is > 10000 µM.

What about the GI50 (OVCAR-5 ovarian) of the same molecule?
The GI50 was > 10000 µM.

And the TGI (OVCAR-5 ovarian)?
The TGI was > 10000 µM.

And the GI50 (OVCAR-8 ovarian)?
The GI50 was > 10000 µM.

What about the TGI (OVCAR-8 ovarian) of the same molecule?
The TGI was > 10000 µM.

And the GI50 (SK-MEL-2 melanoma)?
The GI50 was 8200 µM and > 10000 µM.

And the TGI (SK-MEL-2 melanoma)?
The TGI was > 10000 µM.

What about the GI50 (SNB-19 CNS) of the same molecule?
Its GI50 is 7520 µM and > 10000 µM.

What about the TGI (SNB-19 CNS) of the same molecule?
The TGI was > 10000 µM.

And the GI50 (SR leukemia)?
Its GI50 is > 10000 µM.

And the TGI (SR leukemia)?
Its TGI is > 10000 µM.

Which GI50 (CAKI-1 renal) does the source give for `O=C1c2c(F)c(F)c(F)c(F)c2C(=O)N1c1ccc(F)cc1F` here?
Its GI50 is 8.44 µM.

And the TGI (CAKI-1 renal)?
Its TGI is 25.5 µM.

And the GI50 (MALME-3M melanoma)?
The GI50 was 13.4 µM.

And the TGI (MALME-3M melanoma)?
The TGI was 33.9 µM.

And the GI50 (MCF7 breast)?
The GI50 was 12.9 µM.

And the TGI (MCF7 breast)?
Its TGI is > 55.9 µM.

And the GI50 (MOLT-4 leukemia)?
Its GI50 is 0.864 µM.

And the TGI (MOLT-4 leukemia)?
The TGI was 3.73 µM.

And the GI50 (NCI-H460 lung)?
The GI50 was 9.35 µM.

What about the TGI (NCI-H460 lung) of the same molecule?
The TGI was > 51 µM.

What about the GI50 (OVCAR-5 ovarian) of the same molecule?
Its GI50 is 12.6 µM.

What about the TGI (OVCAR-5 ovarian) of the same molecule?
Its TGI is 26.5 µM.

What about the GI50 (OVCAR-8 ovarian) of the same molecule?
The GI50 was 12.8 µM.

And the TGI (OVCAR-8 ovarian)?
The TGI was 50.8 µM.

What about the GI50 (SK-MEL-2 melanoma) of the same molecule?
The GI50 was 34.4 µM.

What about the TGI (SK-MEL-2 melanoma) of the same molecule?
Its TGI is > 100 µM.

What about the GI50 (SNB-19 CNS) of the same molecule?
Its GI50 is 16.8 µM.

And the TGI (SNB-19 CNS)?
The TGI was 39.8 µM.

What about the GI50 (SR leukemia) of the same molecule?
The GI50 was 0.144 µM.

What about the TGI (SR leukemia) of the same molecule?
Its TGI is 1.2 µM.

How did the GI50 (CAKI-1 renal) turn out when `COc1ccc(CN2C(=O)C(Cl)=C(Nc3cccc(C(F)(F)F)c3)C2=O)cc1` was run?
The GI50 was 5.16 µM.

What about the TGI (CAKI-1 renal) of the same molecule?
The TGI was 24.4 µM.

And the GI50 (MALME-3M melanoma)?
The GI50 was 2.99 µM.

And the TGI (MALME-3M melanoma)?
Its TGI is 22.7 µM.

What about the GI50 (MCF7 breast) of the same molecule?
The GI50 was 2.7 µM.

And the TGI (MCF7 breast)?
Its TGI is 17.2 µM.

What about the GI50 (MOLT-4 leukemia) of the same molecule?
The GI50 was 2.39 µM.

What about the TGI (MOLT-4 leukemia) of the same molecule?
The TGI was 9.29 µM.

What about the GI50 (NCI-H460 lung) of the same molecule?
The GI50 was 3.1 µM.

And the TGI (NCI-H460 lung)?
Its TGI is 15.1 µM.

And the GI50 (OVCAR-5 ovarian)?
The GI50 was 18 µM.

And the TGI (OVCAR-5 ovarian)?
The TGI was 48.7 µM.

And the GI50 (OVCAR-8 ovarian)?
The GI50 was 7.65 µM.

And the TGI (OVCAR-8 ovarian)?
Its TGI is 30.8 µM.

What about the GI50 (SK-MEL-2 melanoma) of the same molecule?
The GI50 was 12.3 µM.

And the TGI (SK-MEL-2 melanoma)?
The TGI was 27.3 µM.

And the GI50 (SNB-19 CNS)?
Its GI50 is 5.09 µM.

What about the TGI (SNB-19 CNS) of the same molecule?
Its TGI is 63.5 µM.

And the GI50 (SR leukemia)?
The GI50 was 2.77 µM.

And the TGI (SR leukemia)?
The TGI was 8.88 µM.

Which results are given for `C/C=C/[C@@H]1O[C@@H]2COC(=O)C2=C[C@@H]1O`?
GI50 (CAKI-1 renal): 2.14 µM; TGI (CAKI-1 renal): 5.03 µM; GI50 (MALME-3M melanoma): 1.96 µM; TGI (MALME-3M melanoma): 6.85 µM; GI50 (MCF7 breast): 33.5 µM; TGI (MCF7 breast): > 100 µM; GI50 (MOLT-4 leukemia): 2.2 µM; GI50 (NCI-H460 lung): > 57.7 µM; TGI (NCI-H460 lung): > 100 µM; GI50 (OVCAR-5 ovarian): 19.2 µM; TGI (OVCAR-5 ovarian): 37.1 µM; GI50 (OVCAR-8 ovarian): 23.3 µM; TGI (OVCAR-8 ovarian): 51.8 µM; GI50 (SK-MEL-2 melanoma): 33.1 µM; TGI (SK-MEL-2 melanoma): > 79.7 µM; GI50 (SNB-19 CNS): 24.2 µM; TGI (SNB-19 CNS): > 57 µM; GI50 (SR leukemia): 9.61 µM; TGI (SR leukemia): > 100 µM

With `CC(=O)Nc1cc2ccc(=O)oc2cc1Cl` as the molecule, how does the TGI (CAKI-1 renal) read?
Its TGI is > 100 µM.

And the TGI (MALME-3M melanoma)?
The TGI was > 100 µM.

What about the TGI (MCF7 breast) of the same molecule?
Its TGI is > 100 µM.

And the TGI (MOLT-4 leukemia)?
The TGI was > 100 µM.

What about the TGI (NCI-H460 lung) of the same molecule?
Its TGI is > 100 µM.

And the TGI (OVCAR-5 ovarian)?
The TGI was > 100 µM.

What about the TGI (OVCAR-8 ovarian) of the same molecule?
The TGI was > 100 µM.

And the TGI (SK-MEL-2 melanoma)?
The TGI was > 100 µM.

What about the TGI (SNB-19 CNS) of the same molecule?
Its TGI is > 100 µM.

What about the TGI (SR leukemia) of the same molecule?
The TGI was > 100 µM.

How did the TGI (CAKI-1 renal) turn out when `C=C(C)C12OC1[C@@]1(C)C(=CC2=O)CCC(O)[C@@H]1C` (some centres undefined) was run?
The TGI was 3 µM.

And the TGI (MALME-3M melanoma)?
The TGI was 25.1 µM.

And the TGI (MCF7 breast)?
Its TGI is > 100 µM.

And the TGI (MOLT-4 leukemia)?
Its TGI is 3.66 µM.

And the TGI (NCI-H460 lung)?
Its TGI is 11.4 µM.

What about the TGI (OVCAR-5 ovarian) of the same molecule?
Its TGI is > 100 µM.

What about the TGI (OVCAR-8 ovarian) of the same molecule?
The TGI was 8.24 µM.

What about the TGI (SK-MEL-2 melanoma) of the same molecule?
The TGI was 20.1 µM.

What about the TGI (SNB-19 CNS) of the same molecule?
Its TGI is 33.2 µM.

What about the TGI (SR leukemia) of the same molecule?
The TGI was 11.3 µM.

How did the TGI (CAKI-1 renal) turn out when `O=C1CSC(=S)N1/N=C/c1ccc(Cl)c([N+](=O)[O-])c1` was run?
The TGI was > 100 µM.

And the TGI (MALME-3M melanoma)?
Its TGI is 40.4 µM.

What about the TGI (MCF7 breast) of the same molecule?
The TGI was 32.7 µM.

What about the TGI (MOLT-4 leukemia) of the same molecule?
Its TGI is > 100 µM.

And the TGI (NCI-H460 lung)?
The TGI was > 100 µM.

What about the TGI (OVCAR-5 ovarian) of the same molecule?
The TGI was > 100 µM.

And the TGI (OVCAR-8 ovarian)?
The TGI was 92.2 µM.

And the TGI (SK-MEL-2 melanoma)?
The TGI was 92.7 µM.

What about the TGI (SNB-19 CNS) of the same molecule?
The TGI was 60.8 µM.

What about the TGI (SR leukemia) of the same molecule?
Its TGI is > 100 µM.

`CC(=O)OC1(C)N=NC2(CCCCC2)O1` (centres undefined) was tested. Which TGI (CAKI-1 renal) did it give?
The TGI was > 100 µM.

And the TGI (MALME-3M melanoma)?
Its TGI is > 100 µM.

What about the TGI (MCF7 breast) of the same molecule?
Its TGI is > 100 µM.

What about the TGI (MOLT-4 leukemia) of the same molecule?
The TGI was > 100 µM.

And the TGI (NCI-H460 lung)?
Its TGI is > 100 µM.

And the TGI (OVCAR-5 ovarian)?
The TGI was > 100 µM.

And the TGI (OVCAR-8 ovarian)?
The TGI was > 100 µM.

And the TGI (SK-MEL-2 melanoma)?
The TGI was > 100 µM.

And the TGI (SNB-19 CNS)?
Its TGI is > 100 µM.

And the TGI (SR leukemia)?
Its TGI is > 100 µM.
